Data reported in patent publication US9289383B2, “Method of reducing intraocular pressure in humans” (Inotek Pharmaceuticals Corporation, priority 2010, dated 2016).
Read-outs that look alike come from different tables or passages of the source.

Tests used:
[1] = In-vitro cornea permeability study (vertical diffusion apparatus); type: in vitro ADME, rabbit; settings: for CPA levels detected on the other side of the cornea membrane (receiver chamber): compound applied to donor side of rabbit cornea membrane, GBR buffer pH 7.4, 37° C.; for cornea permeability: topical delivery to cornea
Procedure: The compounds (2a) and (2g) were prepared in powder form by Inotek Pharmaceuticals Corp. (Lexington, Mass.). Low-permeability control compound atenolol and all other chemicals were purchased from Sigma (St. Louis, Mo.). The buffer used in the permeability assessment was a glutathione-bicarbonated Ringer's (GBR) solution (110 mM NaCl, 5 mM KCl, 1 mM NaH2PO4, 30 mM NaHCO3, 1 mM CaCl2, 0.75 mM Mg Cl2, 5 mM D-glucose, and 0.3 mM reduced glutathione), pH 7.4, which was freshly prepared on the day of the experiment and oxygenated with O2/CO2 (95:5) to pH 7.4.
The compounds (2a) and (2g) were reconstituted in saline and diluted (10-fold) into the assay at a final concentration between 50 μM and 2.6 mM. Male Dutch-belted pigmented rabbits (1.5-2.5 kg body weight, 3-3.5 months old) were purchased from Covance Research Products Inc. (Denver, Pa.). The animal handling performed in this study conformed to the Guiding Principles in the Care and Use of Animals (DHEW Publication, NIH 80-23). The rabbits were euthanized by CO2 asphyxiation, and the heads were transported on ice to a testing facility, where dissection of the eyes was performed.
The corneal tissues were excised and mounted on a Harvard vertical diffusion apparatus as shown in FIG. 3 with a diffusion area of 0.64 cm2. Preheated (37° C.), pH 7.4. GBR buffer was added to the mucosal (1.5 mL) and the serosal (1.5 mL) chambers. The diffusion apparatus was maintained at 37° C. throughout the entire transport experiment. Oxygenation and agitation were achieved by bubbling O2/CO2 (95:5) through each chamber at a rate of 5-6 bubbles per second. After the 30-minute equilibration, blank GBR buffer in the mucosal (donor) chamber was withdrawn and replaced with GBR assay buffer containing the compound (2a) or the compound (2g). The transport experiments lasted 2 hours and were performed in duplicate. Every 60 minutes, 0.2-mL samples were collected from the serosal (receiver) chamber and replenished with 0.2-mL blank GBR buffer, except at the last time point; at the end of the experiment, samples were also collected from the mucosal (donor) chambers for mass balance determination.
After the transport experiment, tissue integrity (system suitability) was assessed by measuring the permeation of a low permeability control compound, atenolol, across the tissue. Donor chamber contents were replaced with GBR buffer containing 100μM atenolol, and receiver chambers were replaced with fresh blank GBR buffer. After 30 minutes of incubation, samples were collected from both chambers for analysis. The post-experimental system suitability assessment was considered acceptable if duplicate measurements yielded a mean apparent permeability (Papp) value for atenolol <1·10^−6 cm/s.
Compound A and compounds (2a) and (2g) and atenolol concentrations in the donor and receiver chambers were analyzed by LC-MS/MS methods. Apparent permeability (Papp) values were calculated using the following equation: Papp=(dCr/dt)·Vr/(A·C0)
Where, dCr /dt was the slope of the linear portion of the cumulative concentration in the receiver compartment over time in μM/sec, Vr was the volume of the receiver chamber in cm^3, A was the diffusion area in cm^2, and C0 was the measured dosing concentration in μM.
Recovery was calculated using the following equation: Recovery=100·([…])/(Vd·C0)
Where, Vr was the volume of the receiver compartment in cm^3, Vd was the volume of the donor compartment in cm^3, C0 was the dosing concentration in μM, Cr^final was the cumulative receiver concentration in μM and Cd^final was the donor concentration in μM at the end of the incubation.

[2] = In vivo study of CPA concentration in the anterior chamber after topical administration to the cornea; settings: Dutch Belted rabbits, topical to the cornea (FIG. 4)
intraocular pressure [3] = settings: topical in DMSO, three mice, cited from earlier work
intraocular pressure [4] = settings: CPA 165 μg; cited from earlier work
[5] = system: optic nerve head tissue blood flow; settings: 10 nmol, injected intravitreally, rabbits; cited from earlier work
[6] = Analysis of human plasma after topical administration of Compound A; type: in vivo; settings: human subject, topical to the cornea, LC/MS/MS
Procedure: After the administration of Compound A topically to a cornea of a human, at selected time points (e.g., Day 1: pre-dose, 5, 15, 25, 35. and 45 min and 1, 2, 4, 8 and 24 hours) samples of whole blood (10 mL) were collected for pharmacokinetic assessments using a vacutainer tube containing sodium heparin as an anticoagulant, via catheter, saline lock, or by venipuncture. The blood components were separated by centrifugation at 4° C. following standard clinical laboratory procedures for preparation of plasma from whole blood (e.g., 3000 rpm for approximately 10 min). For each sample, approximately 1 mL of plasma was stored at −20° C. or colder until analysis for Compound A and CPA concentration. Human plasma samples were analyzed for Compound A concentrations using a validated liquid chromatography/tandem mass spectrometry (LC/MS/MS) method with a lower limit of quantitation (LLOQ) of 10.0 pg/mL and a linear range from 10.0 to 2000 pg/mL. Plasma concentrations of (N(6)-cyclopentyladenosine, CPA) were also measured in some samples using a validated LC/MS/MS method with a lower limit of quantitation of 10.0 pg/mL and a linear range from 10.0 to 2000 pg/mL.

intraocular pressure [7] = experiment: IOP of human subjects after topical administration of Compound A to the cornea; type: in vivo
From the text: As a result of this analysis, CPA has been identified as an active metabolite in clinical studies after the topical administration of Compound A to the cornea of human subjects.

Row | SMILES | CPA levels detected on the other side of the cornea membrane (receiver chamber) [1] | cornea permeability [1] | concentration of CPA in the anterior chamber over time [2] | change in IOP (intraocular pressure [3]; CPA at 100 nM) [mm Hg] | change in IOP (intraocular pressure [3]; CPA at 1 mM) [mm Hg] | effect on rabbit IOP (intraocular pressure [4]) | optic nerve head tissue blood flow [5] | CPA in plasma after administration of Compound A [6] | IOP course after buildup of CPA in plasma (intraocular pressure [7]) | transient elevation in IOP (intraocular pressure [7])
1 | OC[C@H]1O[C@@H](n2cnc3c(NC4CCCC4)ncnc32)[C@H](O)[C@@H]1O [CPA, N^6-cyclopentyladenosine] | much less than that detected when Compound A is topically applied to the cornea | does not have sufficient cornea permeability | build up in concentration of CPA in the anterior chamber over time | −6.8 | −1.0 | reduction of rabbit IOP | increased the optic nerve head tissue blood flow | – | – | –
2 | CC(C)C(=O)OC[C@H]1O[C@@H](n2cnc3c(NC4CCCC4)ncnc32)[C@H](O)[C@@H]1O [Compound 2a, N^6-Cyclopentyl-5′-O-isobutyryl-adenosine] | significant levels of CPA were measureable | significant cornea permeability | – | – | – | – | – | – | – | –
3 | CCCCCCCC(=O)OC[C@H]1O[C@@H](n2cnc3c(NC4CCCC4)ncnc32)[C@H](O)[C@@H]1O [Compound 2g, N^6-Cyclopentyl-5′-O-octanoyl-adenosine] | significant levels of CPA were measureable | significant cornea permeability | – | – | – | – | – | – | – | –
4 | O=[N+]([O-])OC[C@H]1O[C@@H](n2cnc3c(NC4CCCC4)ncnc32)[C@H](O)[C@@H]1O [Compound A, ((2R,3S,4R,5R)-5-(6-(cyclopentylamino)-9H-purin-9-yl)-3,4-dihydroxytetrahydrofuran-2-yl)methyl nitrate] | significant levels of CPA on the other side of the cornea membrane | – | build up in concentration of CPA in the anterior chamber over time | – | – | – | – | detection of CPA in the plasma | continues to decline | no transient elevation in IOP is seen
